Legend:
[1] = system: pain induced by cinnamaldehyde; experiment: Acute hind paw licking/flicking behaviors in mice (cinnamaldehyde-induced pain, normal or inflammatory condition); type: in vivo; conditions: hind paw injection, 10 minutes, substance injected alone, FIG. 3a
Experimental: The time spent for the hind paw licking/flicking behaviors in mice were measured according to the method of Bandell M, et al. (Neuron 41:849-857, 2004) and Moqrich A, et al. (Science 307:1468-1472, 2005), for 10 minutes. • Control: non-treatment; • Experimental group 1. […] 300 μM of CA; • Experimental group 3.

[2] = system: inflammatory sensitization induced by carrageenan; experiment: Sensitivity to thermal stimulation (avoidance time) in carrageenan-injected mice; type: in vivo; conditions: 10 μl of 0.1% carrageenan 3 h before, 10 μl of 1 mM substance into hind paw, FIG. 4
Experimental: Equal amount of AP18 (Biomol, USA), the TRPA1 specific inhibitor, was injected into the positive control. Avoidance time was measured by using thermal stimulator (Ugo basile plant test, Italy). Each group was composed of 5 mice and beam injection was performed four times, which were averaged.

Structure (SMILES)	Time spent for hind paw licking/flicking behaviors, substance alone [1]	Sensitivity against thermal stimulation (avoidance time) [2]
O=CC=Cc1ccccc1 [cinnamaldehyde]	increased the time spent for the behaviors	
CC(=C\c1ccc(Cl)cc1)/C(C)=N/O [AP18]		almost no effects

— patent US8022050B2, “Compound for inhibiting TRPA1 function and use thereof” (Korea University Industry and Academic Collaboration …, priority 2008, dated 2011)
